One data set has as its target Trypsin (Homo sapiens, UniProt P07477+P07478+P35030). The data set is described as follows: Inhibition of trypsin (unknown origin) using Bz-Ile-Glu(gamma-OR)-Gly-Arg-pNA.HCl as substrate incubated for 30 mins followed by substrate addition and measured after 60 mins by microplate reader analysis. The class given is protein assay.
A further data set deals with Prothrombin (Homo sapiens, UniProt P00734). As to the kind of experiment: Inhibition of thrombin (unknown origin) using H-D-Phe-Pip-Arg-pNA.2HCl as substrate incubated for 30 mins followed by substrate addition and measured after 60 mins by microplate reader analysis.
Data set [1] can be described thus: Selectivity index, ratio of IC50 for inhibition of thrombin (unknown origin) using H-D-Phe-Pip-Arg-pNA.2HCl as substrate to IC50 for inhibition of human FXIa using p-Glu-Pro-Arg-pNA.HCl as substrate.
Another data set deals with Chymotrypsin (Homo sapiens, UniProt Q99895+P17538+P40313+Q6GPI1). As to the kind of experiment: Inhibition of chymotrypsin (unknown origin) using N-Suc-Ala-Ala-Pro-Phe-pNA as substrate incubated for 30 mins followed by substrate addition and measured after 60 mins by microplate reader analysis. The class given is protein assay.
Another data set has as its target Coagulation factor X (Homo sapiens, UniProt P00742). As to the kind of experiment: Inhibition of FXa (unknown origin) using Z-D-Arg-Gly-Arg-pNA.2HCl as substrate incubated for 30 mins followed by substrate addition and measured after 60 mins by microplate reader analysis.
A short description of data set [2]: Selectivity index, ratio of IC50 for inhibition of chymotrypsin (unknown origin) using N-Suc-Ala-Ala-Pro-Phe-pNA as substrate to IC50 for inhibition of human FXIa using p-Glu-Pro-Arg-pNA.HCl as substrate.
For a further data set, the target named is Coagulation factor XI (Homo sapiens, UniProt P03951). As to the kind of experiment: Inhibition of human FXIa using p-Glu-Pro-Arg-pNA.HCl as substrate incubated for 30 mins followed by substrate addition and measured after 60 mins by microplate reader analysis.
Another data set has as its target T1, Coagulation factor XII (Homo sapiens, UniProt P00748).
T1 sequence (P00748 whole entry): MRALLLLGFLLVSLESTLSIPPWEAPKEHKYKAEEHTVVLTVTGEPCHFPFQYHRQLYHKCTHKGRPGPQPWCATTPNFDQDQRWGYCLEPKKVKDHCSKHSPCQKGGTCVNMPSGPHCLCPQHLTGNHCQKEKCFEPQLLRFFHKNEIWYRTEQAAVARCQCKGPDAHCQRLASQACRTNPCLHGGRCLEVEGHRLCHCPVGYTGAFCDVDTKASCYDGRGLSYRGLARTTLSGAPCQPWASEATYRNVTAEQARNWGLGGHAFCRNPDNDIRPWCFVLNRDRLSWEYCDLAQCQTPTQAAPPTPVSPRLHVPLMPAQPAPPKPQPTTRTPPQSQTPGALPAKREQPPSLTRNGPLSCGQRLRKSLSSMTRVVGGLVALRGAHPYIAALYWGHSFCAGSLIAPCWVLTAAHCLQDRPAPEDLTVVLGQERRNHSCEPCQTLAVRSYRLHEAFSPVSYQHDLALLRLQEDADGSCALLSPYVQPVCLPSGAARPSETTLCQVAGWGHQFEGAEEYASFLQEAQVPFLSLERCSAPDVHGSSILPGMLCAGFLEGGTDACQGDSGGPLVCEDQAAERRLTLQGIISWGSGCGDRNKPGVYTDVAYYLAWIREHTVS
As to the kind of experiment: Inhibition of FXIIa (unknown origin) using H-D-ProPhe-Arg-pNA.2HCl as substrate incubated for 30 mins followed by substrate addition and measured after 60 mins by microplate reader analysis.

The test system of data set [3] is HK-2. The data set is described as follows: Cytotoxicity against human HK-2 cells assessed as reduction in cell viability at 10 to 50 uM incubated for 24 hrs by MTT assay. The data set is classed as toxicity, cell-based. The settings on record: hk-2, 24 h, dose 10-50 µM.
A short description of data set [4]: Selectivity index, ratio of IC50 for inhibition of plasmin (unknown origin) using PyroGlu-Phe-Lys-pNA.HCl as substrate to IC50 for inhibition of human FXIa using p-Glu-Pro-Arg-pNA.HCl as substrate.
Data set [5] in a line: Selectivity index, ratio of IC50 for inhibition of FXIIa (unknown origin) using H-D-ProPhe-Arg-pNA.2HCl as substrate to IC50 for inhibition of human FXIa using p-Glu-Pro-Arg-pNA.HCl as substrate.
For data set [6], the system named is Plasma. The data set is described as follows: Anticoagulant activity in citrated human plasma assessed as prolongation of activated partial thromboplastin time incubated for 3 mins by aPTT reagent based automated coagulometric analysis. The data set is classed as functional. The note with it: for EC1.5: 0.05 h.
The subject of data set [7] is Plasma. The data set is described as follows: Anticoagulant activity in citrated human plasma assessed as prolongation of prothrombin time incubated for 3 mins by PT reagent based automated coagulometric analysis. The class given is functional, cell-free.
For data set [8], the system named is Plasma. As to the kind of experiment: Anticoagulant activity in citrated human plasma assessed as prolongation of activated partial thromboplastin time at 1 uM incubated for 3 mins by aPTT reagent based automated coagulometric analysis relative to control. The class given is functional. The note with it: 0.05 h.
The nature of data set [9]: Selectivity index, ratio of IC50 for inhibition of tPA (unknown origin) using H-D-Ile-Pro-Arg-pNA-2HCl as substrate to IC50 for inhibition of human FXIa using p-Glu-Pro-Arg-pNA.HCl as substrate.
In another data set the target is Plasminogen (Homo sapiens, UniProt P00747). As to the kind of experiment: Inhibition of plasmin (unknown origin) using PyroGlu-Phe-Lys-pNA.HCl as substrate incubated for 30 mins followed by substrate addition and measured after 60 mins by microplate reader analysis.
Another data set is described as follows: physchem. The settings on record: aqueous medium, pH 7.4.
A short description of data set [10]: Selectivity index, ratio of IC50 for inhibition of FXa (unknown origin) using Z-D-Arg-Gly-Arg-pNA.2HCl as substrate to IC50 for inhibition of human FXIa using p-Glu-Pro-Arg-pNA.HCl as substrate.
A further data set addresses Plasma kallikrein (Homo sapiens, UniProt P03952). As to the kind of experiment: Inhibition of PKal (unknown origin) using H-D-Pro-Phe-Arg-pNA.2HCl as substrate incubated for 30 mins followed by substrate addition and measured after 60 mins by microplate reader analysis.
Data set [11] concerns the target Tissue-type plasminogen activator (Homo sapiens, UniProt P00750). As to the kind of experiment: Inhibition of tPA (unknown origin) using H-D-Ile-Pro-Arg-pNA-2HCl as substrate incubated for 30 mins followed by substrate addition and measured after 60 mins by microplate reader analysis.
Data set [12] in a line: Selectivity index, ratio of IC50 for inhibition of trypsin (unknown origin) using Bz-Ile-Glu(gamma-OR)-Gly-Arg-pNA.HCl as substrate to IC50 for inhibition of human FXIa using p-Glu-Pro-Arg-pNA.HCl as substrate.
Data set [13] concerns HK-2. The data set is described as follows: Cytotoxicity against human HK-2 cells assessed as reduction in cell viability at 1 to 50 uM incubated for 24 hrs by MTT assay. The settings on record: hk-2, 24 h, dose 1-50 µM. The class given is toxicity, cell-based.
The next data set has as its system HepG2. The data set is described as follows: Cytotoxicity against human HepG2 cells assessed as reduction in cell viability at 1 to 50 uM incubated for 24 hrs by MTT assay. The class given is toxicity, cell-based. The note with it: hepg2, 24 h, dose 1-50 µM.
The nature of data set [14]: Cytotoxicity against human AC16 [Human hybrid] cells assessed as reduction in cell viability at 1 to 50 uM incubated for 24 hrs by MTT assay. The class given is toxicity, cell-based. The note with it: dose 1-50 µM.
The nature of data set [15]: Toxicity in male New Zealand white rabbit assessed as prolongation of bleeding time at 2 mg/kg, iv by ear bleeding assay. The data set is classed as organism-based, Oryctolagus cuniculus. The note with it: in vivo.
Data set [16] can be described thus: Toxicity in C57BL/6J mouse assessed as prolongation of bleeding time at 10 mg/kg, IG measured after 30 mins by tail bleeding assay. The data set is classed as organism-based. The settings on record: in vivo, po, 0.5 h.
Data set [17] relates to Plasma. The data set is described as follows: Anticoagulant activity in mouse plasma assessed as prolongation of activated partial thromboplastin time incubated for 3 mins by aPTT reagent based automated coagulometric analysis. The data set is classed as functional. The note with it: 0.05 h.
Data set [18] can be described thus: Toxicity in C57BL/6J mouse assessed as prolongation of bleeding time at 30 mg/kg, IG measured after 30 mins by tail bleeding assay. The class given is organism-based. The settings on record: in vivo, po, 0.5 h.

Converted amounts (≈) assume the structure as drawn. “And” between values parts separate entries of the source, which are not always exact repeats. Equal values may be shown once. The source made the active and inactive calls. The rule behind the calls is not given here.

Chain of Plasminogen (P00747 97-580 limits assumed): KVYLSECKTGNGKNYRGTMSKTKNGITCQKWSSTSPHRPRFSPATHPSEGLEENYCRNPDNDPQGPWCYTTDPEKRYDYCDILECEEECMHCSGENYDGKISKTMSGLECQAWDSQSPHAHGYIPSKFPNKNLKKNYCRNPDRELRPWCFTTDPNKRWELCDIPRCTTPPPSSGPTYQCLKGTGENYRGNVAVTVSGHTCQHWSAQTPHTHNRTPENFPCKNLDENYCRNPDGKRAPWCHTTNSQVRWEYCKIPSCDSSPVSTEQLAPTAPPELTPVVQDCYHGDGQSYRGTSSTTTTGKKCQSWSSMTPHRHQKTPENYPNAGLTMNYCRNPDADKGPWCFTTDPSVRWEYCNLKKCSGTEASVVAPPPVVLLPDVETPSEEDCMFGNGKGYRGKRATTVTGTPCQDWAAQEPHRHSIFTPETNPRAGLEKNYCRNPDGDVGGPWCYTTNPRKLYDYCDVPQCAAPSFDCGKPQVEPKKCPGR
Chain of Plasminogen (P00747 581-810 limits assumed): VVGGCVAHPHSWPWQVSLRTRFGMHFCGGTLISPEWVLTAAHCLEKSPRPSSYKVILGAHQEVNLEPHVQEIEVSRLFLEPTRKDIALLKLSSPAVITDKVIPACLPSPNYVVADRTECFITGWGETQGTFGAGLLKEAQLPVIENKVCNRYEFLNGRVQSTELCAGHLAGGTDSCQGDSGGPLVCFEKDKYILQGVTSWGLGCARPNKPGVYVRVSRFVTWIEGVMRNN
Chain of Tissue-type plasminogen activator (P00750 whole entry): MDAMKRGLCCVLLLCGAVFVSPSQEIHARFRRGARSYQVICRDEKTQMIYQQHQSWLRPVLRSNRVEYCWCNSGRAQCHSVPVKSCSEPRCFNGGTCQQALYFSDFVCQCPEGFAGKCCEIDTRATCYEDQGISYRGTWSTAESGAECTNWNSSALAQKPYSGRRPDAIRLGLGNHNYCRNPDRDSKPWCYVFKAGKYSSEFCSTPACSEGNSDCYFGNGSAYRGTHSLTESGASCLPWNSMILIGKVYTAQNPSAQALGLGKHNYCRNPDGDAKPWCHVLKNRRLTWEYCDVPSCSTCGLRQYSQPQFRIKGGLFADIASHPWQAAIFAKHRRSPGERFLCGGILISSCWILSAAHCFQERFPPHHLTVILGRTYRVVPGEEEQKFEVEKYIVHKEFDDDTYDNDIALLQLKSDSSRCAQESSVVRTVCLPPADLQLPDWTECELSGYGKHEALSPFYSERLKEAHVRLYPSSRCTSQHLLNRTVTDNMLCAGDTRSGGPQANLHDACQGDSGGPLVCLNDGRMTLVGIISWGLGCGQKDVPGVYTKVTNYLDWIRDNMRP
Chain of Coagulation factor X (P00742 41-179 limits assumed): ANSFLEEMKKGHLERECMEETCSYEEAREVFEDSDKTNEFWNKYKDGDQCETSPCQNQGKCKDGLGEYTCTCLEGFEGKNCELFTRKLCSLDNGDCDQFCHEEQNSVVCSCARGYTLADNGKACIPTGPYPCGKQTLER
Chain of Coagulation factor X (P00742 235-488 limits assumed): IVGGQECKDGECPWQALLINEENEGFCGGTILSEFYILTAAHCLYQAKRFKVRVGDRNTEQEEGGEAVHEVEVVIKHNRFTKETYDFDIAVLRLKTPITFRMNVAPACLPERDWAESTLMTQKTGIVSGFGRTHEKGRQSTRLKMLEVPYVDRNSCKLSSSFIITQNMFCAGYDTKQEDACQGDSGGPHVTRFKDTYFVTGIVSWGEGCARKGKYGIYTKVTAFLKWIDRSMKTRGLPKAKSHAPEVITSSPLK
Chain of Plasma kallikrein (P03952 20-390 limits assumed): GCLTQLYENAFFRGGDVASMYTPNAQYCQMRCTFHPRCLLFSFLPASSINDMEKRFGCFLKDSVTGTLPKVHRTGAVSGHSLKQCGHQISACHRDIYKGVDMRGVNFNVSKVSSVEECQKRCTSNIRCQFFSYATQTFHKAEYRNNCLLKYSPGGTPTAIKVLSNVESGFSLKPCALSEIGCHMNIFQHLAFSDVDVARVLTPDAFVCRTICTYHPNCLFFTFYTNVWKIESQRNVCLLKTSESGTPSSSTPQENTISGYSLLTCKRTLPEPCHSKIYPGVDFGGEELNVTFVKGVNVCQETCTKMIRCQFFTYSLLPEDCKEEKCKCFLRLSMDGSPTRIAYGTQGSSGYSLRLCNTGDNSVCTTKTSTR
Chain of Plasma kallikrein (P03952 391-638 limits assumed): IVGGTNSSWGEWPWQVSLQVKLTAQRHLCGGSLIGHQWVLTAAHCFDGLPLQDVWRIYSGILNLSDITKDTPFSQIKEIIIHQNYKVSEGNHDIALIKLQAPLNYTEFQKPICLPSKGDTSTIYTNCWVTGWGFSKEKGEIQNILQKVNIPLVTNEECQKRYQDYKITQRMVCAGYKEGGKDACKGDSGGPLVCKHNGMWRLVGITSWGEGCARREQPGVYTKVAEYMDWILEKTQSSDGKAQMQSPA
Chain of Coagulation factor XI (P03951 19-387 limits assumed): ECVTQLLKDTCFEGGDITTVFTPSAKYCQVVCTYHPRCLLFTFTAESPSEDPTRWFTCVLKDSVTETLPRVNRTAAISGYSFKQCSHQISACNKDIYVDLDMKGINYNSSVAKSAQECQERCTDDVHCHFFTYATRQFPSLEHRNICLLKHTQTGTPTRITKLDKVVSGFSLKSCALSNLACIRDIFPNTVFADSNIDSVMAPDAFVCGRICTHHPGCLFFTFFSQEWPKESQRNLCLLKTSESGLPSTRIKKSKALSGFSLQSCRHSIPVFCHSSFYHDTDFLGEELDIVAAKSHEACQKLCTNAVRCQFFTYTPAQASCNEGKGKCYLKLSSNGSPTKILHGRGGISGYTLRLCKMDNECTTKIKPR
Chain of Coagulation factor XI (P03951 388-625 limits assumed): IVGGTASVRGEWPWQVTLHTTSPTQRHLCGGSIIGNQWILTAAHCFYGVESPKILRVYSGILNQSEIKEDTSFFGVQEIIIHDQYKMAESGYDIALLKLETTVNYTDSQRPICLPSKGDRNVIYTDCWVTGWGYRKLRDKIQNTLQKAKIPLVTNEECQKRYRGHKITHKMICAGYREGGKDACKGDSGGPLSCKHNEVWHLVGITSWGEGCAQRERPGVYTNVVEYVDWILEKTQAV
Description for physchem: Aqueous solubility of the compound in DMSO at pH 7.4 incubated for 12 hrs by turbidimetric based UV spectrophotometric analysis

With `CCC(c1cc(-c2ccc(N)nc2)ccn1)n1cc(OC)c(-c2cc(Cl)ccc2-n2cnnn2)cc1=O` (racemic), the IC50 is more than 1 µM against Trypsin; more than 1 µM on Prothrombin; more than 1 µM against Chymotrypsin; more than 1 µM against Coagulation factor X; 0.00037 µM on Coagulation factor XI; more than 1 µM against Coagulation factor XII. Besides, the figures for the IC50 (against Plasminogen; against Plasma kallikrein; in [11]) were more than 1 µM, 0.081 µM and more than 1 µM, respectively. The Ratio IC50 in data set [1], in [2], in [4], in data set [5], in [9] and in [10] was more than 1000 each time. The Ratio IC50 in data set [12] was more than 1000. The values for the Activity entry in the data set on HK-2 [3], in the data set with Plasma [6] and in the data set with Plasma [8] were “Toxic”, “Dose-dependent-effect” and 210.1%, respectively. Also, in the data set with Plasma [6], the EC1.5 worked out at 0.58 µM. Further, the outcome with Plasma [7] was inactive. The compound further showed a solubility (kinetic) at 12 h in “physchem” of 0.108 mg/mL (≈ 210 µM).

Take `O=C(NC[C@H]1CN(c2ccc(N3CCOCC3=O)cc2)C(=O)O1)c1ccc(Cl)s1` [RIVAROXABAN]: the Activity result is reported as “Non-toxic” in the data set with HK-2 [13]; “Non-toxic” in the data set on HepG2; “Non-toxic” in [14]; “Toxic” in data set [15]; “Toxic” in data set [16].

Consider `CC[C@@H](C(=O)Nc1ccc(C(N)=O)c(F)c1)n1cc(OC)c(-c2cc(Cl)ccc2-n2cc(C(F)(F)F)nn2)cc1=O`, for which the IC50 at Trypsin, on Prothrombin, on Chymotrypsin, on Coagulation factor X, against Coagulation factor XII and on Plasminogen was more than 1 µM in each case. This compound also displayed an IC50 in data set [11] of more than 1 µM. For the same compound, the EC1.5 result in the data set with Plasma [17] was “>=9.3 uM and >12.5 uM”; in the data set on Plasma [6], 0.42 µM. Further, the Activity entry was “Dose-dependent-effect” in the data set on Plasma [6]; “Non-toxic” in data set [18]; 250.8% in the data set on Plasma [8]; “Non-toxic” in the data set on HK-2 [13]; “Non-toxic” in the data set with HepG2; “Non-toxic” in data set [14].
